Data as given in US12558333B2, “Agent for ameliorating and/or preventing sickle cell disease” (The University of Tokyo, priority 2019, dated 2026).
Where a name gives a salt, the structure may show the parent alone.

What was measured:
SCD homo mice = conditions: normal oxygen concentration; 4 weeks; 5-ALA hydrochloride 50 mg/kg/day and/or SFC 3.9 mg/kg/day; vs physiological saline (FIG. 10); combination P<0.05
Protocol: All the prepared smear specimens were stained with May-Giemsa in the same manner as in Example 2, and the ratio of sickle cells to all red blood cells was measured. The rate of the sickle cells of the groups were compared with each other to examine the effect of the combination of 5-ALA hydrochloride and SFC on the rate of the in vivo sickle cells.

SCD homo mouse = experiment: Bleeding stress due to blood sampling in SCD model mice (blood LDH level); assay type: in vivo; conditions: 50/3.9 mg/kg single administration after first blood sampling, blood sampling 2 after 3 hours, vs physiological saline
Protocol: Using the LDH levels in blood in the SCD model mice as an index, the effect of 5-ALA hydrochloride on bleeding stress due to blood sampling in the SCD patients was examined.
The LDH levels in the blood collected before and after the administration were measured, and the effect of the combination of 5-ALA hydrochloride and SFC on bleeding stress due to blood sampling was evaluated.

[1] = test system: red blood cells collected from SCD homo mice; experiment: Sickling by hypoxia exposure of cultured red blood cells collected from SCD homo mice; assay type: cell-based, mouse; conditions: then 4% O2 for 1.5 hours
From the text: SCD model mice aged 8 to 20 weeks were used. In the mice, a human HBA gene and a human HBB gene are knocked in a mouse HBA gene locus and a mouse HBB gene locus, respectively, and a gene mutation (β^s mutation) causing amino acid substitution (Val6Glu) causing SCD is introduced into the human HBB gene. Furthermore, a human HBG gene is introduced, and expression switching from post-natal γ-globin to β-globin is designed to occur as in humans. […] The SCD homo mouse was anesthetized with isoflurane, and 100 μl of blood was then collected from the vein behind the jawbone into an EDTA-2Na-coated blood sampling tube using an animal lamp set. The coagulation of the blood was prevented by lightly tapping the tube. The collected blood was transferred to a 1.5 ml tube, and centrifuged for 10 minutes under conditions of 3000 rpm and 4° C. After removing the supernatant, 1 ml of PBS was added to the precipitated red blood cells, followed by mixing by inversion, to wash the cells. The red blood cells obtained by repeating this washing operation again were diluted 200 times with a cell culture solution (RPMI 1640, 10% FBS, 1% Penicillin-Streptomycin-Fungizone Cocktail), and cultured under the conditions of 37° C., 5% CO2, and 21% O2. This red blood cell culture solution was used in the experiment within 5 days from the start of culture. […]

| Molecule | rate of the in vivo sickle cells (SCD homo mice) | increase in the LDH level in blood after blood sampling (SCD homo mouse) | red blood cells exhibiting a sickle form ([1]; 50 μM for 4 hours, SCD homo mouse No. 72, vs 0 μM (FIG. 1)) | sickling rate ([1]; 10, 25 and 50 μM for 4 hours, vs 0 μM (FIG. 2)) |
| --- | --- | --- | --- | --- |
| NCC(=O)CCC(=O)O [5-ALA hydrochloride, 5-aminolevulinic acid] | slightly decreases | markedly suppressed | remarkable decrease | concentration-dependent decrease |
| sodium ferrous citrate [SFC] | little effect | – | – | – |
